{"source": "ChEMBL document CHEMBL1201862", "about": "“PubChem BioAssay data set” (2004)", "key": {"[1]": {"test": "Luminescence Cell-Based Dose Confirmation HTS to Identify Activators of 5'UTR Stem-Loop Driven Alpha-Synuclein mRNA Translation in H4 Neuroglioblastoma Cells. [Related pubchem assays: 1829 (Project Summary), 1814 (Primary HTS)]", "type": "functional"}, "[2]": {"test": "Luminescence Cell-Based Dose Response HTS to Identify Activators of Luciferase Translation or Activity in H4 […] Cells. [Related pubchem assays: 1829 (Project Summary), 1814 (Primary HTS)]", "type": "functional"}, "H4": {"test_system": "H4", "test": "Luminescence Cell-Based Dose Response HTS to Identify Activators of 5'UTR Stem-Loop Driven Prion Protein mRNA Translation in H4 Neuroglioblastoma Cells. [Related pubchem assays: 1829 (Project Summary), 1814 (Primary HTS)]", "type": "functional", "details": "Homo sapiens"}, "Vero [3]": {"test_system": "Vero", "test": "host cell cytotoxicity of antiviral hits, dose response, cytotoxicity control for West Nile virus antiviral project, secondary assay (AID 1650)", "type": "functional", "details": "Chlorocebus sabaeus"}, "Vero [4]": {"test_system": "Vero", "test": "West Nile virus antiviral activity, cell-based, CPE readout (AID 1621)", "type": "functional", "details": "Chlorocebus sabaeus"}, "[5]": {"test": "Luminescence Cell-Based Dose Retest to Confirm Inhibitors of Cancer Stem Cells. [Related pubchem assays (depositor defined):AID2717, AID2721]", "type": "functional", "details": "Homo sapiens"}, "[6]": {"molecular_target": "T1, Microphthalmia-associated transcription factor (Homo sapiens, UniProt O75030)", "T1 sequence (O75030 whole entry)": "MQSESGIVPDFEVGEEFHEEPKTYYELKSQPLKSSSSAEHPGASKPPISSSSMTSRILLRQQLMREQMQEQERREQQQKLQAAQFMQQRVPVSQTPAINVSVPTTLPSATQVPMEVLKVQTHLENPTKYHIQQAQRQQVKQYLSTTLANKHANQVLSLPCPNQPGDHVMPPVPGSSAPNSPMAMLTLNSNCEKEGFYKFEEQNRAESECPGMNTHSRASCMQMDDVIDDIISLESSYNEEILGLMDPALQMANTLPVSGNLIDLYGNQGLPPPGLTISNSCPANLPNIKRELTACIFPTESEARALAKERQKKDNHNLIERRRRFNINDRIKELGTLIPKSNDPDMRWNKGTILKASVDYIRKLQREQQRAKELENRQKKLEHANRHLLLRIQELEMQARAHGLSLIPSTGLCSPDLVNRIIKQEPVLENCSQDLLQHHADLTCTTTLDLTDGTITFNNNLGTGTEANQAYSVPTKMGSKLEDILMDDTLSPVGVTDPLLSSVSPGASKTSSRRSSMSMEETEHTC", "test": "TRPM1 promoter luciferase signal decrease, dose response, MITF inhibitor project, cell-based, SK-MEL-5, cherry-picked, set 3 (AID 493073)", "type": "functional"}, "[7]": {"molecular_target": "T2, Aryl hydrocarbon receptor (Homo sapiens, UniProt P35869)", "T2 sequence (P35869 whole entry)": "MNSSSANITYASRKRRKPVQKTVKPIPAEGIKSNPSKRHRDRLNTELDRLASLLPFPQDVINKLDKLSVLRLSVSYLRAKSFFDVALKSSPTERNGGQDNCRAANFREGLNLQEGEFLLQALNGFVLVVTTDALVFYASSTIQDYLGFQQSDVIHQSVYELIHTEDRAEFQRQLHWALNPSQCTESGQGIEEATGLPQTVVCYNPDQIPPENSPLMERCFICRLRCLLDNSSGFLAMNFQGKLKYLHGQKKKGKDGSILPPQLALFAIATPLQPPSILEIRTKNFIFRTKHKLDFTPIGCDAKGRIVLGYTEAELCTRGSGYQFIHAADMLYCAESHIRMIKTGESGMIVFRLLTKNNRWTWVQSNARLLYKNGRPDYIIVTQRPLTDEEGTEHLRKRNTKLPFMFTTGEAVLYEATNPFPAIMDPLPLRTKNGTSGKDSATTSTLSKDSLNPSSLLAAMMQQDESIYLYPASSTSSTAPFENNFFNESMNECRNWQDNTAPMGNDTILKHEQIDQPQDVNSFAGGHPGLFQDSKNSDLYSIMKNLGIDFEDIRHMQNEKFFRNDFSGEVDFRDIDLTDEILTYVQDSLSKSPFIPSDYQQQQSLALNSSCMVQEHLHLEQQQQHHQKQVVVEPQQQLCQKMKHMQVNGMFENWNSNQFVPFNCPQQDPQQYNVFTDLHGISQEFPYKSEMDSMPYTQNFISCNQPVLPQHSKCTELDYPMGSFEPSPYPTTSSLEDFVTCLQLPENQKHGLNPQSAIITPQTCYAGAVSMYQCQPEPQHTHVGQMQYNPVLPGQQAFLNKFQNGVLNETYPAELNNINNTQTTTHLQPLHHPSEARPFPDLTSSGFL", "test": "Luminescence-based cell-based high throughput dose response assay for activators of the Aryl Hydrocarbon Receptor (AHR). [Related pubchem assays: 2796 (Primary screen (AHR activators in singlicate)), 2845 (Confirmation screen (AHR activators in triplicate)), 434939 (Counterscreen (PXR activators in triplicate)), 2804 (Summary (AHR activators))]", "type": "ADME"}, "[8]": {"molecular_target": "FAD-linked sulfhydryl oxidase ALR (Homo sapiens, UniProt P55789)", "sequence (P55789 whole entry)": "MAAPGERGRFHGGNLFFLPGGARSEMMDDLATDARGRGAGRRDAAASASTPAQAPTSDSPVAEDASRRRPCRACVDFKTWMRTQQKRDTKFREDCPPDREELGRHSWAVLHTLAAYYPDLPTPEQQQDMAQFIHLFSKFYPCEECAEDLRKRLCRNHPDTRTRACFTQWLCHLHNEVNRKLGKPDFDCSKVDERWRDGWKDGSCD", "test": "inhibitors of human ALR sulfhydryl oxidase, dose response, biochemical, H2O2 detection, luminescence, cherry-pick (AID 493248)"}, "[9]": {"molecular_target": "Mitogen-activated protein kinase 10 (Homo sapiens, UniProt P53779)", "sequence (P53779 whole entry)": "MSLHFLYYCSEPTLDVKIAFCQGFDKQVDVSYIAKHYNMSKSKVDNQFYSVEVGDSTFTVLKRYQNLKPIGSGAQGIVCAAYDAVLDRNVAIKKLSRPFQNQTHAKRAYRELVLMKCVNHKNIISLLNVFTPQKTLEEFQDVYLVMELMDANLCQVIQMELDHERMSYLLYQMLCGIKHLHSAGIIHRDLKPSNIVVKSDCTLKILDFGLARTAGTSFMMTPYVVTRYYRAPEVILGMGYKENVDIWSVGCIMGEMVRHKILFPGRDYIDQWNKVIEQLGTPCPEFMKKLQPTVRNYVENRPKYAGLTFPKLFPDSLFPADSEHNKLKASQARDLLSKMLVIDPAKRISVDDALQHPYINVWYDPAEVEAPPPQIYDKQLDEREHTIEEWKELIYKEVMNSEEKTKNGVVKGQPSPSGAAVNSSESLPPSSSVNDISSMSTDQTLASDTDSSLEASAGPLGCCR", "test": "Dose response biochemical screening assay for inhibitors of c-Jun N-Terminal Kinase 3 (JNK3). [Related pubchem assays: 746 ]"}, "[10]": {"test": "ZM109 Env clade C HIV-1 fusion inhibitors, dose response, HeLa effector, CEM target cells, luciferase, cherry-pick (AID 652058)", "type": "functional, cell-based"}, "[11]": {"test": "inhibitors of clade B AD8 Env fusion, dose response, cell-based, cherry-pick (AID 652062);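 note: potency is for inhibitors of fusion seen as a drop in luminescence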", "type": "functional"}, "Aspartyl aminopeptidase": {"molecular_target": "T3, Aspartyl aminopeptidase (Plasmodium falciparum 3D7, UniProt Q8I2J3)", "T3 sequence (Q8I2J3 whole entry)": "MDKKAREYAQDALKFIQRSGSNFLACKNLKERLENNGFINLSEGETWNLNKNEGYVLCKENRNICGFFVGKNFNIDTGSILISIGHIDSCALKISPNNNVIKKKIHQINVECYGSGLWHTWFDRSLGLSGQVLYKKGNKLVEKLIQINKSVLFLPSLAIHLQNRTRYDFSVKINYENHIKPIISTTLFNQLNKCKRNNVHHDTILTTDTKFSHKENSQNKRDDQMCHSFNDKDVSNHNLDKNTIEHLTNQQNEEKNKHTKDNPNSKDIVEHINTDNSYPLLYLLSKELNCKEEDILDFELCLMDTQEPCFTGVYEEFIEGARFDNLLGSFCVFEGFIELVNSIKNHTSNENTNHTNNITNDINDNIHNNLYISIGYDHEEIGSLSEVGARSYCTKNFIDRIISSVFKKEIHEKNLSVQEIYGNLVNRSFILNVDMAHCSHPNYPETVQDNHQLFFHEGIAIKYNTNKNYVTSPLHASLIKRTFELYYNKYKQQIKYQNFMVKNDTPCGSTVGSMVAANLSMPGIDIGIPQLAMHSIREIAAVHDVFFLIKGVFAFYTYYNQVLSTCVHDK", "test": "Counterscreen for inhibitors of M1 and M17 aminopeptidases: QFRET-based biochemical high throughput dose response assay for inhibitors of the Plasmodium falciparum M18 Aspartyl Aminopeptidase (PFM18AAP). [Related PubChem assays: 1619 (Screening assay (M17LAP inhibitors).), 1445 (Screening assay (M1AAP inhibitors).)]"}, "Aminopeptidase N": {"molecular_target": "T4, Aminopeptidase N (Plasmodium falciparum FcB1/Columbia, UniProt O96935)", "T4 sequence (O96935 whole entry)": "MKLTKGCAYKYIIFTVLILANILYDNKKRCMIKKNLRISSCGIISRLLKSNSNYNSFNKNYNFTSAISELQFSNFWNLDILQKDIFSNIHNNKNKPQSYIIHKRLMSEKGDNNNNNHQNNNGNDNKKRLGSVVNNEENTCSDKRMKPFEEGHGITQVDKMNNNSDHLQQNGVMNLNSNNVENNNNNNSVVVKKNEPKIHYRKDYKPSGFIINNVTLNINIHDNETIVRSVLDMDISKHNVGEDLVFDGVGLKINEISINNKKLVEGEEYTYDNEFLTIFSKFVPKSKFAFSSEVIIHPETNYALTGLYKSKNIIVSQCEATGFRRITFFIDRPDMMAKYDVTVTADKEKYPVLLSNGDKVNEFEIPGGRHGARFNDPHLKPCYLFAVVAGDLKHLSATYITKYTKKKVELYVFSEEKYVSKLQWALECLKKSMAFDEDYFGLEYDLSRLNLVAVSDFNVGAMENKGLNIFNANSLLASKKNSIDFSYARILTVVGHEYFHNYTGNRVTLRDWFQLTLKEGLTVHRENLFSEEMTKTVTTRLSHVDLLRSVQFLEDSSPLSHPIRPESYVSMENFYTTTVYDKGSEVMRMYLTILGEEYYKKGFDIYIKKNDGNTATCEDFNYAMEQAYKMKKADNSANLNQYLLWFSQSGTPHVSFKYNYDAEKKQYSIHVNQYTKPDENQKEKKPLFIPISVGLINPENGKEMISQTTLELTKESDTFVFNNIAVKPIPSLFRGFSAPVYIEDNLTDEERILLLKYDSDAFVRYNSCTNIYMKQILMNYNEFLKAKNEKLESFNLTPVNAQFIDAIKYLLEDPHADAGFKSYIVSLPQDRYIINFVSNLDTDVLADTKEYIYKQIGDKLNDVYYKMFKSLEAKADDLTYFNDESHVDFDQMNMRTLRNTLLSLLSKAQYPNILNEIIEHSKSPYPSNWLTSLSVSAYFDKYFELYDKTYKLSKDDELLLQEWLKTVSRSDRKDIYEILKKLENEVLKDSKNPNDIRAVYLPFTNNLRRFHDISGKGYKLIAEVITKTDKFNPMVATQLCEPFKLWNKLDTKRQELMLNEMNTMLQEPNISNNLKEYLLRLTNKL", "test": "P. falciparum M1AAP inhibitors, biochemical, fluorogenic H-Leu-NHMec substrate, 1536-well (AID 1445)", "design": "species or system Plasmodium falciparum 3D7, 3D7"}, "Procathepsin L": {"molecular_target": "Procathepsin L (Homo sapiens, UniProt P07711)", "sequence (P07711 whole entry)": "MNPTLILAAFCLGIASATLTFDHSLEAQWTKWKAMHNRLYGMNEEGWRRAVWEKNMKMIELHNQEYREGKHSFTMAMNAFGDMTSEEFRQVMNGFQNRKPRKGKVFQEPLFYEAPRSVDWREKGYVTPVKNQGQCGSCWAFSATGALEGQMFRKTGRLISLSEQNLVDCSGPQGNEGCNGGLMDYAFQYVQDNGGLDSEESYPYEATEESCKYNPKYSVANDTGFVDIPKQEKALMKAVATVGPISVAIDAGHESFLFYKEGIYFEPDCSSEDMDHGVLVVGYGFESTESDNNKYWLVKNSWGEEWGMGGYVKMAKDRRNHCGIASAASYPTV", "test": "cathepsin L inhibitors, dose response, counter-screen for M1/M17 aminopeptidase inhibitor project, biochemical, QFRET, 1536-well (AID 2214)"}, "Bcl-2-related protein A1": {"molecular_target": "T5, Bcl-2-related protein A1 (Mus musculus, UniProt Q07440)", "T5 sequence (Q07440 whole entry)": "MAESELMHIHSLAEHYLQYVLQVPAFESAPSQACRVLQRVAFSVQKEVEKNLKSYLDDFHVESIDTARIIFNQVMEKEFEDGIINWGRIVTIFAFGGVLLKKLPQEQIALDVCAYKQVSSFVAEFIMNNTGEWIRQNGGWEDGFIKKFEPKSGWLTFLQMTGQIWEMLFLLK", "type": "functional"}, "[12]": {"molecular_target": "T6, Ubiquitin-conjugating enzyme E2 N (Homo sapiens, UniProt P61088)", "T6 sequence (P61088 whole entry)": "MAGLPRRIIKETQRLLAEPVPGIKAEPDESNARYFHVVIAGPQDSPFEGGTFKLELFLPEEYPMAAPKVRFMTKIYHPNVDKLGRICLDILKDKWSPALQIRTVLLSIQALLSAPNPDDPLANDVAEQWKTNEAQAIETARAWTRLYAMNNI", "type": "functional"}, "[13]": {"molecular_target": "T6, Ubiquitin-conjugating enzyme E2 N", "type": "functional", "remark": "listed apart in the source"}}, "note": "The source made the active and inactive calls.", "data": [{"smiles": "C=C1C(=O)C=C[C@]2(C)C[C@@H]3OC(=O)[C@](C)(O)[C@H]3C[C@@H]12", "values": [{"measurement": "EC50", "setting": "[1]", "result": "106 nM (active)"}, {"measurement": "EC50", "setting": "[2]", "result": "153 nM (active)"}, {"measurement": "EC50", "setting": "H4", "result": "887 nM (active)"}, {"measurement": "CC50", "setting": "Vero [3]", "result": "10.8 µM (active)"}, {"measurement": "IC50", "setting": "Vero [4]", "result": "24.7 µM (active)"}, {"measurement": "AC50", "setting": "[5]", "result": "4.35 µM (active)"}, {"measurement": "AC50", "setting": "[6]", "result": "10.3 µM (active)"}]}, {"smiles": "COc1ccccc1C(=O)Nc1ccc(N2CCCCC2)cc1", "values": [{"measurement": "EC50", "setting": "[7]", "result": "2.91 µM (active)"}, {"measurement": "AC50", "setting": "[8]", "result": "13.4 µM (active)"}]}, {"smiles": "N#Cc1c(NCc2ccccc2)ccnc1NCc1cccnc1", "values": [{"measurement": "IC50", "setting": "[9]", "result": "3.96 µM (active)"}, {"measurement": "AC50", "setting": "[10]", "result": "861 nM (active)"}, {"measurement": "AC50", "setting": "[11]", "result": "5.44 µM (active)"}]}, {"smiles": "CC(=O)N1NC(=C2C(=O)N(C)C(=O)N(C)C2=O)CC1c1ccccc1", "note": "(centres undefined)", "values": [{"measurement": "IC50", "setting": "Aspartyl aminopeptidase", "result": "> 73.5 µM (not active)"}, {"measurement": "IC50", "setting": "Aminopeptidase N", "result": "16 µM (active)"}, {"measurement": "IC50", "setting": "Procathepsin L", "result": "> 59.6 µM (not active)"}, {"measurement": "IC50", "setting": "Bcl-2-related protein A1", "result": "> 20 µM (inactive)"}, {"measurement": "IC50", "setting": "[12]", "result": "12.5 µM (active)"}, {"measurement": "IC50", "setting": "[13]", "result": "19.5 µM (active)"}]}, {"smiles": "c1ccc2nc3c(nc2c1)c1ccccc1n3CCN1CCOCC1", "values": [{"measurement": "IC50", "setting": "[9]", "result": "> 93.1 µM (not active)"}]}]}
